Data taken from ChEMBL document CHEMBL2203260, “Riccardin C derivatives as anti-MRSA agents: structure-activity relationship of a series of hydroxylated bis(bibenzyl)s” (2012).
Values after ≈ are worked out from the molar mass of the structure shown.

Experiments:
Staphylococcus aureus [1] = assay: Antibacterial activity against methicillin-resistant Staphylococcus aureus OM481 by two-fold liquid microdilution method; assay type: functional
Staphylococcus aureus [2] = assay: Antibacterial activity against methicillin-resistant Staphylococcus aureus OM584 by two-fold liquid microdilution method; assay type: functional

**Q.** Which results are given for `Oc1ccc2cc1Oc1ccc(cc1)CCc1ccccc1-c1ccc(cc1O)CC2`?
**A.** MIC (Staphylococcus aureus [1]): 3.2 µg/mL (≈ 7.83 µM); MIC (Staphylococcus aureus [2]): 3.2 µg/mL (≈ 7.83 µM)

**Q.** How did the MIC (Staphylococcus aureus [1]) turn out when `COc1ccc2cc1Oc1ccc(cc1)CCc1ccccc1-c1ccc(cc1)CC2` was run?
**A.** > 100 µg/mL

**Q.** And the MIC (Staphylococcus aureus [2])?
**A.** > 100 µg/mL

**Q.** `Oc1cc2ccc1-c1ccccc1CCc1ccc(cc1)Oc1cccc(c1)CC2` was tested. Which MIC (Staphylococcus aureus [1]) did it give?
**A.** 3.2 µg/mL (≈ 8.15 µM)

**Q.** And the MIC (Staphylococcus aureus [2])?
**A.** > 100 µg/mL

**Q.** `Oc1ccc2c(c1)CCc1ccc(cc1)Oc1cccc(c1)CCc1ccc-2cc1` was tested. Which MIC (Staphylococcus aureus [1]) did it give?
**A.** 1.6 µg/mL (≈ 4.08 µM)

**Q.** And the MIC (Staphylococcus aureus [2])?
**A.** > 100 µg/mL

**Q.** How did the MIC (Staphylococcus aureus [1]) turn out when `Oc1ccc2cc1Oc1ccc(cc1)CCc1ccccc1-c1ccc(cc1)CC2` was run?
**A.** > 100 µg/mL

**Q.** What about the MIC (Staphylococcus aureus [2]) of the same molecule?
**A.** > 100 µg/mL

**Q.** How did the MIC (Staphylococcus aureus [1]) turn out when `COc1cc2ccc1-c1ccccc1CCc1ccc(cc1)Oc1cccc(c1)CC2` was run?
**A.** > 100 µg/mL

**Q.** What about the MIC (Staphylococcus aureus [2]) of the same molecule?
**A.** > 100 µg/mL

**Q.** `Oc1ccc2c(c1)CCc1ccc(cc1)Oc1cccc(c1)CCc1ccc-2c(O)c1` was tested. Which MIC (Staphylococcus aureus [1]) did it give?
**A.** 3.2 µg/mL (≈ 7.83 µM)

**Q.** And the MIC (Staphylococcus aureus [2])?
**A.** 3.2 µg/mL (≈ 7.83 µM)

**Q.** For `COc1ccc2c(c1)CCc1ccc(cc1)Oc1cccc(c1)CCc1ccc-2cc1`, which MIC (Staphylococcus aureus [1]) is on record?
**A.** > 100 µg/mL

**Q.** What about the MIC (Staphylococcus aureus [2]) of the same molecule?
**A.** > 100 µg/mL

**Q.** With `Oc1ccc2c(c1)CCc1ccc(cc1)Oc1cc(ccc1O)CCc1ccc-2c(O)c1` [RICCARDI C] as the molecule, how does the MIC (Staphylococcus aureus [1]) read?
**A.** 3.2 µg/mL (≈ 7.54 µM)

**Q.** And the MIC (Staphylococcus aureus [2])?
**A.** 3.2 µg/mL (≈ 7.54 µM)

**Q.** `Oc1ccc(CCc2cccc(O)c2)cc1` [LUNULARIN] was tested. Which MIC (Staphylococcus aureus [1]) did it give?
**A.** > 100 µg/mL

**Q.** And the MIC (Staphylococcus aureus [2])?
**A.** > 100 µg/mL

**Q.** How did the MIC (Staphylococcus aureus [1]) turn out when `Oc1ccc2c(c1)CCc1ccc(cc1)Oc1cc(ccc1O)CCc1ccc-2cc1` was run?
**A.** 3.2 µg/mL (≈ 7.83 µM)

**Q.** And the MIC (Staphylococcus aureus [2])?
**A.** 3.2 µg/mL (≈ 7.83 µM)

**Q.** Which results are given for `Oc1ccc(-c2ccccc2O)cc1`?
**A.** MIC (Staphylococcus aureus [1]): > 100 µg/mL; MIC (Staphylococcus aureus [2]): > 100 µg/mL

**Q.** How did the MIC (Staphylococcus aureus [1]) turn out when `Oc1ccccc1Oc1ccccc1` was run?
**A.** 6.25 µg/mL (≈ 33.6 µM)

**Q.** And the MIC (Staphylococcus aureus [2])?
**A.** 6.25 µg/mL (≈ 33.6 µM)

**Q.** For `Oc1ccc2c(c1)CCc1ccc(c(O)c1)Oc1cc(ccc1O)CCc1ccc-2c(O)c1`, which MIC (Staphylococcus aureus [1]) is on record?
**A.** 16 µg/mL (≈ 36.3 µM)

**Q.** And the MIC (Staphylococcus aureus [2])?
**A.** 16 µg/mL (≈ 36.3 µM)

**Q.** Which MIC (Staphylococcus aureus [1]) does the source give for `CC(=O)NC[C@H]1CN(c2ccc(N3CCOCC3)c(F)c2)C(=O)O1` [LINEZOLID] here?
**A.** 1 µg/mL (≈ 2.96 µM)

**Q.** What about the MIC (Staphylococcus aureus [2]) of the same molecule?
**A.** 1 µg/mL (≈ 2.96 µM)

**Q.** For `Oc1ccc2c(c1)CCc1ccc(cc1O)Oc1cc(ccc1O)CCc1ccc-2c(O)c1`, which MIC (Staphylococcus aureus [1]) is on record?
**A.** 8 µg/mL (≈ 18.2 µM)

**Q.** What about the MIC (Staphylococcus aureus [2]) of the same molecule?
**A.** 8 µg/mL (≈ 18.2 µM)
